Experimental data published in patent US8192962B2, “Processes for detecting toxic substances” (Daikin Industries, Ltd., priority 2001, dated 2012).

System: Energy system protein genes
Experiment: DNA chip mRNA expression in yeast, energy system protein genes (Table 4)
Assay type: cell-based, Saccharomyces cerevisiae S288C
Summary of the method: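 First, S288C yeast grown in YPD at 25° C. are dosed in log phase with one toxicant (growth-inhibiting, not lethal) for 2 h. Next, total RNA is extracted and poly(A) mRNA isolated and reverse-transcribed with Cy3/Cy5-dUTP. Finally, whole-genome chip fluorescence is read relative to unexposed cells.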

S=C([S-])NCCNC(=S)[S-].[Zn+2] [(11), zinc N,N′-ethylenebis(dithiocarbamate)]
The level of expressed mRNA in the presence of chemical substance/The level of expressed mRNA in the absence of chemical substance (yeast gene YAL060W): 2.4 | The level of expressed mRNA in the presence of chemical substance/The level of expressed mRNA in the absence of chemical substance (yeast gene YBL058W, cells incubated two hours with the chemical substance): 1.3 | The level of expressed mRNA in the presence of chemical substance/The level of expressed mRNA in the absence of chemical substance (yeast gene YBL099W, cells incubated two hours with the chemical substance): 2.1 | The level of expressed mRNA in the presence of chemical substance/The level of expressed mRNA in the absence of chemical substance (yeast gene YBR001C, cells incubated two hours with the chemical substance): 1.0 | The level of expressed mRNA in the presence of chemical substance/The level of expressed mRNA in the absence of chemical substance (yeast gene YBR185C, cells incubated two hours with the chemical substance): 1.2 | The level of expressed mRNA in the presence of chemical substance/The level of expressed mRNA in the absence of chemical substance (yeast gene YBR221C, cells incubated two hours with the chemical substance): 1.2 | The level of expressed mRNA in the presence of chemical substance/The level of expressed mRNA in the absence of chemical substance (yeast gene YCL040W): 8.2 | The level of expressed mRNA in the presence of chemical substance/The level of expressed mRNA in the absence of chemical substance (yeast gene YCR012W): 1.8 | The level of expressed mRNA in the presence of chemical substance/The level of expressed mRNA in the absence of chemical substance (yeast gene YCR046C, cells incubated two hours with the chemical substance): 1.5 | The level of expressed mRNA in the presence of chemical substance/The level of expressed mRNA in the absence of chemical substance (yeast gene YCR105W, cells incubated two hours with the chemical substance): 2.3 | The level of expressed mRNA in the presence of chemical substance/The level of expressed mRNA in the absence of chemical substance (yeast gene YDL021W): 4.7 | The level of expressed mRNA in the presence of chemical substance/The level of expressed mRNA in the absence of chemical substance (yeast gene YDL067C, cells incubated two hours with the chemical substance): 1.4 | The level of expressed mRNA in the presence of chemical substance/The level of expressed mRNA in the absence of chemical substance (yeast gene YDL078C, cells incubated two hours with the chemical substance): 1.7 | The level of expressed mRNA in the presence of chemical substance/The level of expressed mRNA in the absence of chemical substance (yeast gene YDL107W, cells incubated two hours with the chemical substance): 1.0 | The level of expressed mRNA in the presence of chemical substance/The level of expressed mRNA in the absence of chemical substance (yeast gene YDL174C): 0.9 | The level of expressed mRNA in the presence of chemical substance/The level of expressed mRNA in the absence of chemical substance (yeast gene YDL181W, cells incubated two hours with the chemical substance): 0.8 | The level of expressed mRNA in the presence of chemical substance/The level of expressed mRNA in the absence of chemical substance (yeast gene YDR001C): 0.7 | The level of expressed mRNA in the presence of chemical substance/The level of expressed mRNA in the absence of chemical substance (yeast gene YDR050C, cells incubated two hours with the chemical substance): 2.0 | The level of expressed mRNA in the presence of chemical substance/The level of expressed mRNA in the absence of chemical substance (yeast gene YDR079W, cells incubated two hours with the chemical substance): 1.3 | The level of expressed mRNA in the presence of chemical substance/The level of expressed mRNA in the absence of chemical substance (yeast gene YDR178W, cells incubated two hours with the chemical substance): 2.0 | The level of expressed mRNA in the presence of chemical substance/The level of expressed mRNA in the absence of chemical substance (yeast gene YDR231C): 1.3 | The level of expressed mRNA in the presence of chemical substance/The level of expressed mRNA in the absence of chemical substance (yeast gene YDR298C, cells incubated two hours with the chemical substance): 1.2 | The level of expressed mRNA in the presence of chemical substance/The level of expressed mRNA in the absence of chemical substance (yeast gene YDR377W, cells incubated two hours with the chemical substance): 1.4 | The level of expressed mRNA in the presence of chemical substance/The level of expressed mRNA in the absence of chemical substance (yeast gene YDR529C, cells incubated two hours with the chemical substance): 0.8 | The level of expressed mRNA in the presence of chemical substance/The level of expressed mRNA in the absence of chemical substance (yeast gene YEL024W, cells incubated two hours with the chemical substance): 0.9 | The level of expressed mRNA in the presence of chemical substance/The level of expressed mRNA in the absence of chemical substance (yeast gene YEL039C, cells incubated two hours with the chemical substance): 1.7 | The level of expressed mRNA in the presence of chemical substance/The level of expressed mRNA in the absence of chemical substance (yeast gene YER178W): 2.5 | The level of expressed mRNA in the presence of chemical substance/The level of expressed mRNA in the absence of chemical substance (yeast gene YFL057C): 27.7 | The level of expressed mRNA in the presence of chemical substance/The level of expressed mRNA in the absence of chemical substance (yeast gene YFR053C): 1.5 | The level of expressed mRNA in the presence of chemical substance/The level of expressed mRNA in the absence of chemical substance (yeast gene YGL018C, cells incubated two hours with the chemical substance): 1.1 | The level of expressed mRNA in the presence of chemical substance/The level of expressed mRNA in the absence of chemical substance (yeast gene YGL062W): 0.7 | The level of expressed mRNA in the presence of chemical substance/The level of expressed mRNA in the absence of chemical substance (yeast gene YGL187C, cells incubated two hours with the chemical substance): 0.7 | The level of expressed mRNA in the presence of chemical substance/The level of expressed mRNA in the absence of chemical substance (yeast gene YGL191W, cells incubated two hours with the chemical substance): 1.6 | The level of expressed mRNA in the presence of chemical substance/The level of expressed mRNA in the absence of chemical substance (yeast gene YGL205W, cells incubated two hours with the chemical substance): 0.4 | The level of expressed mRNA in the presence of chemical substance/The level of expressed mRNA in the absence of chemical substance (yeast gene YGL256W, cells incubated two hours with the chemical substance): 1.0 | The level of expressed mRNA in the presence of chemical substance/The level of expressed mRNA in the absence of chemical substance (yeast gene YGR008C): 2.6 | The level of expressed mRNA in the presence of chemical substance/The level of expressed mRNA in the absence of chemical substance (yeast gene YGR043C): 3.6 | The level of expressed mRNA in the presence of chemical substance/The level of expressed mRNA in the absence of chemical substance (yeast gene YGR062C, cells incubated two hours with the chemical substance, 25° C., YPD medium): 1.6 | The level of expressed mRNA in the presence of chemical substance/The level of expressed mRNA in the absence of chemical substance (yeast gene YGR087C, cells incubated two hours with the chemical substance): 0.8 | The level of expressed mRNA in the presence of chemical substance/The level of expressed mRNA in the absence of chemical substance (yeast gene YGR174C, cells incubated two hours with the chemical substance): 1.3 | The level of expressed mRNA in the presence of chemical substance/The level of expressed mRNA in the absence of chemical substance (yeast gene YGR192C): 2.3 | The level of expressed mRNA in the presence of chemical substance/The level of expressed mRNA in the absence of chemical substance (yeast gene YGR244C): 1.8 | The level of expressed mRNA in the presence of chemical substance/The level of expressed mRNA in the absence of chemical substance (yeast gene YGR254W): 1.3 | The level of expressed mRNA in the presence of chemical substance/The level of expressed mRNA in the absence of chemical substance (yeast gene YGR256W): 2.7 | The level of expressed mRNA in the presence of chemical substance/The level of expressed mRNA in the absence of chemical substance (yeast gene YHL008C): 1.4 | The level of expressed mRNA in the presence of chemical substance/The level of expressed mRNA in the absence of chemical substance (yeast gene YHR174W): 1.4 | The level of expressed mRNA in the presence of chemical substance/The level of expressed mRNA in the absence of chemical substance (yeast gene YHR179W): 2.0 | The level of expressed mRNA in the presence of chemical substance/The level of expressed mRNA in the absence of chemical substance (yeast gene YIL045W): 1.2 | The level of expressed mRNA in the presence of chemical substance/The level of expressed mRNA in the absence of chemical substance (yeast gene YIL160C): 2.4 | The level of expressed mRNA in the presence of chemical substance/The level of expressed mRNA in the absence of chemical substance (yeast gene YIR031C, cells incubated two hours with the chemical substance): 1.2 | The level of expressed mRNA in the presence of chemical substance/The level of expressed mRNA in the absence of chemical substance (yeast gene YJL052W): 4.3 | The level of expressed mRNA in the presence of chemical substance/The level of expressed mRNA in the absence of chemical substance (yeast gene YJL121C, cells incubated two hours with the chemical substance): 1.1
